Experimental data taken from PubChem BioAssay AID2060885 (Molecular Pharmacology Branch, DTP, NCI, 2025).

Test system: NCI-H23 complex spheroids with HUVEC/MSC, viability
Test: Anticancer human tumor NCI-H23 cell line growth inhibition [RAS];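 also: spheroids exposed to compound for 7 days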;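 as to viability, T/C: 100% = DMSO vehicle control viability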
Conditions: for IC50: curve of first compound; for viability, T/C: stronger effect = lower value
How it was run: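 Multi-cell-type spheroids: tumor cells plus HUVEC endothelial cells and mesenchymal stem cells. RAS-pathway inhibitors were combined with targeted agents, each dosed in half-log steps down from clinical Cmax, or from 10 microM when Cmax was unknown.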

[1] = second compound 0.0316 µM, first compound 0.0316 µM
[2] = second compound 0.0316 µM, first compound 0.1 µM
[3] = second compound 0.0316 µM, first compound 0.316 µM
[4] = second compound 0.0316 µM, first compound 1 µM
[5] = second compound 0.0316 µM, first compound 3.16 µM
[6] = second compound 0.0316 µM, first compound 10 µM
[7] = second compound 0.1 µM, first compound 0.0316 µM
[8] = second compound 0.1 µM, first compound 0.1 µM
[9] = second compound 0.1 µM, first compound 0.316 µM
[10] = second compound 0.1 µM, first compound 1 µM
[11] = second compound 0.1 µM, first compound 3.16 µM
[12] = second compound 0.1 µM, first compound 10 µM
[13] = second compound 0.316 µM, first compound 0.0316 µM
[14] = second compound 0.316 µM, first compound 0.1 µM
[15] = second compound 0.316 µM, first compound 0.316 µM
[16] = second compound 0.316 µM, first compound 1 µM
[17] = second compound 0.316 µM, first compound 3.16 µM
[18] = second compound 0.316 µM, first compound 10 µM
[19] = second compound 1 µM, first compound 0.0316 µM
[20] = second compound 1 µM, first compound 0.1 µM
[21] = second compound 1 µM, first compound 0.316 µM
[22] = second compound 1 µM, first compound 1 µM
[23] = second compound 1 µM, first compound 3.16 µM
[24] = second compound 1 µM, first compound 10 µM
[25] = second compound 3.16 µM, first compound 0.0316 µM
[26] = second compound 3.16 µM, first compound 0.1 µM
[27] = second compound 3.16 µM, first compound 0.316 µM
[28] = second compound 3.16 µM, first compound 1 µM
[29] = second compound 3.16 µM, first compound 3.16 µM
[30] = second compound 3.16 µM, first compound 10 µM
[31] = second compound 10 µM, first compound 0.0316 µM
[32] = second compound 10 µM, first compound 0.1 µM
[33] = second compound 10 µM, first compound 0.316 µM
[34] = second compound 10 µM, first compound 1 µM
[35] = second compound 10 µM, first compound 3.16 µM
[36] = second compound 10 µM, first compound 10 µM

## CC(Nc1ccc2c(c1)OCCn1cc(N3C(=O)OCC3C(F)F)nc1-2)C(N)=O (centres undefined) + C#Cc1c(F)ccc2cc(O)cc(-c3ncc4c(N5CC6CCC(C5)N6)nc(OCC56CCCN5CC(F)C6)nc4c3F)c12
Second compound 0.0316 µM
  IC50: > 10 µM
Second compound 0.1 µM
  IC50: > 10 µM
Second compound 0.316 µM
  IC50: > 10 µM
Second compound 1 µM
  IC50: > 10 µM
Second compound 3.16 µM
  IC50: 0.207 µM
Second compound 10 µM
  IC50: < 0.0316 µM
[1]
  viability, T/C: 96.5%
[2]
  viability, T/C: 112%
[3]
  viability, T/C: 74.5%
[4]
  viability, T/C: 70.5%
[5]
  viability, T/C: 62.9%
[6]
  viability, T/C: 74%
[7]
  viability, T/C: 108%
[8]
  viability, T/C: 119%
[9]
  viability, T/C: 77.3%
[10]
  viability, T/C: 69.3%
[11]
  viability, T/C: 64.9%
[12]
  viability, T/C: 71.2%
[13]
  viability, T/C: 107%
[14]
  viability, T/C: 107%
[15]
  viability, T/C: 66.2%
[16]
  viability, T/C: 66.8%
[17]
  viability, T/C: 63.7%
[18]
  viability, T/C: 60.9%
[19]
  viability, T/C: 98.8%
[20]
  viability, T/C: 86.5%
[21]
  viability, T/C: 60.8%
[22]
  viability, T/C: 54%
[23]
  viability, T/C: 49.5%
[24]
  viability, T/C: 63.8%
[25]
  viability, T/C: 61.2%
[26]
  viability, T/C: 63.6%
[27]
  viability, T/C: 39.8%
[28]
  viability, T/C: 40.4%
[29]
  viability, T/C: 43.1%
[30]
  viability, T/C: 48.1%
[31]
  viability, T/C: 36.6%
[32]
  viability, T/C: 38.7%
[33]
  viability, T/C: 27.5%
[34]
  viability, T/C: 23.4%
[35]
  viability, T/C: 30.8%
[36]
  viability, T/C: 24.2%

## CC1(O)CCCC1n1c(=O)c(C(F)F)cc2cnc(NC3CCN(S(C)(=O)=O)CC3)nc21 (centres undefined) + C#Cc1c(F)ccc2cc(O)cc(-c3ncc4c(N5CC6CCC(C5)N6)nc(OCC56CCCN5CC(F)C6)nc4c3F)c12
Second compound 0.0316 µM
  IC50: 5.49 µM
Second compound 0.1 µM
  IC50: 5.24 µM
Second compound 0.316 µM
  IC50: 4.83 µM
Second compound 1 µM
  IC50: 3.91 µM
Second compound 3.16 µM
  IC50: < 0.0316 µM
Second compound 10 µM
  IC50: < 0.0316 µM
[1]
  viability, T/C: 93.3%
[2]
  viability, T/C: 92.8%
[3]
  viability, T/C: 75.2%
[4]
  viability, T/C: 80.1%
[5]
  viability, T/C: 81.7%
[6]
  viability, T/C: 15.6%
[7]
  viability, T/C: 90.2%
[8]
  viability, T/C: 87.4%
[9]
  viability, T/C: 58.7%
[10]
  viability, T/C: 77.3%
[11]
  viability, T/C: 76.4%
[12]
  viability, T/C: 16.3%
[13]
  viability, T/C: 86.5%
[14]
  viability, T/C: 74.1%
[15]
  viability, T/C: 58%
[16]
  viability, T/C: 65%
[17]
  viability, T/C: 72.2%
[18]
  viability, T/C: 13.7%
[19]
  viability, T/C: 62.6%
[20]
  viability, T/C: 66.1%
[21]
  viability, T/C: 46.6%
[22]
  viability, T/C: 52.7%
[23]
  viability, T/C: 66.3%
[24]
  viability, T/C: 10.9%
[25]
  viability, T/C: 48.3%
[26]
  viability, T/C: 40.2%
[27]
  viability, T/C: 34.7%
[28]
  viability, T/C: 40%
[29]
  viability, T/C: 42%
[30]
  viability, T/C: 7.05%
[31]
  viability, T/C: 32.6%
[32]
  viability, T/C: 28.3%
[33]
  viability, T/C: 24.9%
[34]
  viability, T/C: 27.6%
[35]
  viability, T/C: 29.6%
[36]
  viability, T/C: 2.78%
